Assay results as given in publication PMC10216605, “Developing In Vitro Models to Define the Role of Direct Mitochondrial Toxicity in Frequently Reported Drug-Induced Rhabdomyolysis” (Biomedicines, 2023).
Where two headings read alike, the source gives them in different places.

Experiments:
[1] = test system: L6 cells; test: Acute metabolic switch assay (cellular ATP content, glucose vs galactose media) in L6 differentiated myotubes; conditions: for Mitotoxicity classification in acute metabolic switch assay: based on IC50-ATPglu vs IC50-ATPgal; for IC50: Rattus norvegicus, L6, 2 h
Protocol: They were then seeded into collagen-coated wells (50 µg/mL in 0.02 M of acetic acid) at a density of 16,000 cells/100 μL/well (96 well plates) and 10,000 cells/100 μL/well (XF 96-well cell culture microplates). The cells were next incubated for 24 h in complete growth medium to promote adherence, after which the growth medium was removed and the cells washed twice with 1× HBSS. The L6 myoblasts were then cultured in differentiation medium consisting of high-glucose DMEM (25 mM) supplemented with L-glutamine (4 mM), sodium pyruvate (1 mM), HEPES (5 mM), and horse serum (2% v/v). Fresh differentiation medium was provided every 48 h for 7 days.
(§1) On the day of the assay, the media on the differentiated myotubes were replaced with either serum-free high-glucose (DMEM, 25 mM of glucose, 4 mM of L-glutamine, 1 mM of sodium pyruvate, and 5 mM of HEPES) or serum-free galactose (DMEM, 10 mM of galactose, 6 mM of L-glutamine, 1 mM of sodium pyruvate, and 5 mM of HEPES) media (100 µL) for 2 h (37 °C, 5% CO2). The glucose and galactose media were removed and replaced with drug-dosing solutions in either glucose or galactose media as appropriate, before incubation (2 h, 37 °C, 5% CO2). […] Vehicle control was included in each experiment.
(§2) The cellular ATP content was measured using a bioluminescence assay kit, alongside the concomitant measurement of protein using a bicinchoninic acid (BCA) assay kit to normalise ATP data to the total protein. Briefly, the cells were lysed using ATP lysis buffer (50 µL/well) and the plate was shaken (5 min). According to the manufacturer’s instructions, 40 µL of ATP reagent was added to each well containing 5 µL of cell lysate in a white 96-well plate. The […] luminescence signal was measured immediately using a plate reader (Varioskan, Thermo Scientific, Schaumburg, IL USA).

[2] = FAERS analysis of reported rhabdomyolysis cases per suspect drug; conditions: for Number of Death Cases (n = 576): monotherapy rhabdomyolysis cases with fatal outcome
Protocol: Due to the quarterly updating of the database by the FDA, the searches were performed using the term “rhabdomyolysis” on one occasion to ensure the data were extracted at that specified period. All individual files were downloaded and saved from this one timepoint to specify the analysis period used in this study. Further refinement was performed using Microsoft Excel to extract only cases where the suspect drug was reported as a monotherapy, using the generic name of the suspect drugs. To ensure data accuracy, any case reported by a consumer or company underwent further checks to ensure it had not been previously reported by a healthcare provider, by confirming that no duplication of case ID was present.

[3] = test system: HSKMDC; test: Mitochondrial stress test (Seahorse XFe96 respirometry) in HSKMDC; type: cell-based, human; conditions: acute injection
Protocol: On the day of the assay, for the analysis of the acute injection of the drug on differentiated myotubes, the differentiation media was replaced with 175 µL of unbuffered Seahorse Assay media supplemented with 25 mM of glucose, 4 mM of L-glutamine, 1 mM of sodium pyruvate, and 5 mM of HEPES pre-warmed to 37 °C, then incubated in a CO2 free incubator at 37 °C for 1 h. Alternately, in the pre-treatment strategy, differentiated myotubes were pre-treated with the drug for 5 h in differentiation medium, then transferred to a CO2-free incubator at 37 °C for 1 h. Next, the differentiation media were replaced with 175 µL of unbuffered Seahorse Assay media supplemented with the constituents stated above. Briefly, using the XF^e96 instrument (Seahorse extracellular flux analyser, Agilent Technologies, Santa Clara, CA, USA), the oxygen partial pressure in each well was allowed to reach equilibrium for 10 min. The oxygen consumption rate (OCR) was measured three times at baseline; then, there was a 3 min mix for each measurement followed by a 3 min wait. […] In the acute injection method, the drug injection was only performed at the end of the basal measurement cycles, followed by the mitochondrial inhibitors described above. The duration of the assay was 120 min (acute injection) and 90 min (pre-treatment strategy). From each mitochondrial stress test was determined the OCR parameters of non-mitochondrial respiration (NMR = lowest measurement after rotenone/antimycin A); basal respiration (BR = last measurement before oligomycin − NMR); proton-leak (PL = BR − lowest respiration after oligomycin); ATP-linked respiration (ALR = BR − PL); maximum respiratory capacity (MRC = highest measurement after FCCP − NMR); and spare respiratory capacity (SRC = MRC − BR).

[4] = test system: L6 cells; conditions: 6 h exposure
Protocol: The mitochondrial stress test allowed confirmation of mitotoxicity and further identification of the specific mechanisms through quantification of OXPHOS parameters: basal respiration (BR), ATP-linked respiration (ALR), and spare respiratory capacity (SRC). On the day of the assay, for the analysis of the acute injection of the drug on differentiated myotubes, the differentiation media was replaced with 175 µL of unbuffered Seahorse Assay media supplemented with 25 mM of glucose, 4 mM of L-glutamine, 1 mM of sodium pyruvate, and 5 mM of HEPES pre-warmed to 37 °C, then incubated in a CO2 free incubator at 37 °C for 1 h. Alternately, in the pre-treatment strategy, differentiated myotubes were pre-treated with the drug for 5 h in differentiation medium, then transferred to a CO2-free incubator at 37 °C for 1 h. Next, the differentiation media were replaced with 175 µL of unbuffered Seahorse Assay media supplemented with the constituents stated above. Briefly, using the XF^e96 instrument (Seahorse extracellular flux analyser, Agilent Technologies, Santa Clara, CA, USA), the oxygen partial pressure in each well was allowed to reach equilibrium for 10 min. The oxygen consumption rate (OCR) was measured three times at baseline; then, there was a 3 min mix for each measurement followed by a 3 min wait. […] In the acute injection method, the drug injection was only performed at the end of the basal measurement cycles, followed by the mitochondrial inhibitors described above. The duration of the assay was 120 min (acute injection) and 90 min (pre-treatment strategy). From each mitochondrial stress test was determined the OCR parameters of non-mitochondrial respiration (NMR = lowest measurement after rotenone/antimycin A); basal respiration (BR = last measurement before oligomycin − NMR); proton-leak (PL = BR − lowest respiration after oligomycin); ATP-linked respiration (ALR = BR − PL); maximum respiratory capacity (MRC = highest measurement after FCCP − NMR); and spare respiratory capacity (SRC = MRC − BR) [42, 43].

[5] = test system: primary human skeletal muscle-derived cells (HSKMDC); test: cells; type: cell-based; conditions: 2 h exposure; for IC50: Homo sapiens, Myotube, mean ± S.D. (n = 3)
Protocol: (§3) HSKMDC myoblasts were collected by trypsinisation using trypsin-EDTA (0.05%) upon reaching 50% confluence and seeded into collagen-coated wells, at a density of 20,000 cells/100 μL/well (96 well plates) and 25,000 cells/100 μL/well (XF 96-well cell culture microplates). After 24 h, the cells were washed twice with 1× PBS (-/-), and growth media were replaced with differentiation medium containing DMEM low-glucose media (glucose 5 mM), L-glutamine (4 mM), sodium pyruvate (1 mM) supplemented with 2% (v/v) horse serum, and (10 nM) human insulin. The medium was refreshed every 48 h for 5 days.
as §1, §2

[6] = test system: primary human skeletal muscle-derived cells (HSKMDC); test: cells; type: cell-based; conditions: for IC50: Homo sapiens, Myotube, 2 h
Protocol: as §3, §1
Cytotoxicity was detected using a lactate dehydrogenase (LDH) assay kit. Briefly, according to the manufacturers’ instructions, 25 µL of the supernatant and 10 µL of cell lysate were incubated with 50 µL of LDH reagent for 30 min in the dark. Samples were read at 490 nm using a plate reader.

SMILES | Mitotoxicity classification in acute metabolic switch assay ([1]; L6 cells, 2 h exposure) | Number of Death Cases (n = 576) [2] | Classification from pattern of changes in BR, ALR and SRC [3] | Concentration at which significant reduction of ATP-linked respiration was first observed [3] | Classification from pattern of changes in BR, ALR and SRC [4] | (%) of total rhabdomyolysis cases ([2]; FAERS 2004 to 31 March 2020, of 27,140 cases) | Number of Rhabdomyolysis Cases ([2]; FAERS 2004 to 31 March 2020, total 27,140 rhabdomyolysis cases, some cases with more than one suspected drug) | (%) of monotherapy rhabdomyolysis cases ([2]; monotherapy, of 6583 cases) | Number of Rhabdomyolysis Cases (n = 6583) ([2]; suspected drug reported as a single drug used (monotherapy), FAERS 2004 to 31 March 2020) | IC50-ATPglu/IC50-ATPgal ([1]; L6 cells, 2 h exposure, […]) | IC50 ([1]; read-out: ATP IC50 Galactose) | IC50 ([1]; read-out: ATP IC50 Glucose) | IC50-ATPglu/IC50-ATPgal [5] | IC50-ATPglu/IC50-ATPgal ([5]; listed as rotenone) | IC50 ([5]; galactose serum-free media, read-out: ATP IC50 Galactose) | IC50 ([5]; glucose serum-free media, read-out: ATP IC50 Glucose) | IC50-LDH gal/ IC50-ATP al ([6]; HSKMDC, 2 h exposure, galactose media) | IC50 ([6]; read-out: LDH IC50 Galactose) | IC50 ([6]; read-out: LDH IC50 Glucose)
Cc1nc2n(c(=O)c1CCN1CCC(c3noc4cc(F)ccc34)CC1)CCCC2 [Risperidone] | containing a mitochondrial liability | 7 | direct inhibitors of the electron transport chain | 11 µM | direct inhibitors of the electron transport chain |  |  |  |  |  |  |  |  |  |  |  |  |  | 
CC(C)OC(=O)C(C)(C)Oc1ccc(C(=O)c2ccc(Cl)cc2)cc1 [Fenofibrate] | containing a mitochondrial liability | 6 | direct inhibitors of the electron transport chain | 3.6 µM | direct inhibitors of the electron transport chain | 1.7% | 449 | 1.9% | 126 |  |  |  |  |  |  |  |  |  | 
C=C(C)[C@H]1Cc2c(ccc3c2O[C@@H]2COc4cc(OC)c(OC)cc4[C@@H]2C3=O)O1 [Rotenone] |  |  |  |  |  |  |  |  |  | >138.9 (<0.0001) | 0.036 ± 0.008 µM | > 5 µM | >318.4 (<0.0001) | > 318 | 0.016 ± 0.007 µM | > 5 µM | >312.5 | > 5 µM | > 5 µM
